Reference: patent US5006531A, “5,6-dihydro(1H-indolo(3,2-C)quinoline-6,4'-piperidines) and related compounds which are useful for treating pain, psychosis or convulsions” (Hoechst-Roussel Pharmaceuticals Inc., priority 1989, dated 1991)
Structures can show the parent of a compound that is named as a salt.

Columns and labels:
Type in all cases: in vivo
[1] = tested on: CK-1 male mice; assay: climbing mice assay (apomorphine-induced climbing, antipsychotic activity); conditions: Mus musculus, apomorphine 1.5 mg/kg s.c.
Procedure: Antipsychotic activity is determined in the climbing mice assay by methods similar to those described by P. Protais, et al., Psychopharmacol., 50, 1 (1976) and B. Costall, Eur. J. Pharmacol., 50, 39, (1978).
The subject CK-1 male mice (23-27 grams) are group-housed under standard laboratory conditions. The mice are individually placed in wire mesh stick cages (4"×4" by 10") and are allowed one hour for adaptation and exploration of the new environment. Then apomorphine is injected subcutaneously at 1.5 mg/kg, a dose causing climbing in all subjects for 30 minutes. Compounds to be tested for antipsychotic activity are injected intraperitoneally 30 minutes prior to the apomorphine challenge at a screening dose of 10 mg/kg.
For evaluation of climbing, 3 readings are taken at 10, 20 and 30 minutes after apomorphine administration according to the following scale:
4 paws on bottom (no climbing)
2 paws on the wall (rearing)
4 paws on the wall (full climb)
Mice consistently climbing before the injection of apomorphine are discarded.
With full-developed apomorphine climbing, the animals are hanging onto the cage walls, rather motionless, over long periods of time. By constrast, climbs due to mere motor stimulation usually last only a few seconds.
The climbing scores are individually totaled (maximum score: 6 per mouse over 3 readings) and the total score of the control group (vehicle intraperitoneally; apomorphine subcutaneously) is set to 100%. ED50 values with 95% confidence limits, calculated by a linear regression analysis, of some of the compounds of this invention are presented in Table 2.
Results of the climbing mice assay for some of the compounds of this invention along with a result for a reference compounds are presented in Table 2.

[2] = tested on: mice; assay: 2-phenyl-1,4-benzoquinone-induced writhing (PQW) test in mice (analgesic activity); conditions: for PQW: s.c.
Text: Compounds I of the present invention are useful as analgesic agents due to their ability to alleviate pain in mammals. […] Exptl. Biol. Med., 95, 729 (1957)].

[3] = tested on: male mice; assay: supramaximal electroshock (SES) assay in the mouse (anticonvulsant activity)
Procedure: Compounds I of the present invention are also useful as anticonvulsant agents due to their anticonvulsant activity in mammals. Anticonvulsant activity is measured in the mouse using the supramaximal electroshock (SES) assay described in Arch. Int. Pharmacodyn. 92: 97-107, 1952. In this procedure groups of male mice, 18-30 grams, are used. Drugs are prepared using distilled water and, if insoluble, a surfactant is added. Control animals receive vehicle. Drugs are routinely administered intraperitoneally (i.p.). The dosage volume is 10 ml/kg. A primary screen is given a 30 minute pretreat. The animal's eyes are placed across the output terminals of an A.C. shocker that delivers 206 volts rms for 300 msec. Electrode paste coats the animal's eyes at the point of contact with the terminals. […] Protection is expressed as normalized percent inhibition relative to vehicle control.
A time response is carried out using six animals/group. Animals are tested at 30, 60 and 120 minutes postdrug. Additional time periods are tested if indicated by previous tests. When the peak activity time has been determined, a dose response is initiated using 10 animals/group at that time period. The ED50 and 95% confidence interval are calculated by computer probit analysis.
Test results of supramaximal electroshock for a compound of this invention along with a result for a reference compound are presented in Table 3.

[4] = ip, 30 minutes prior to apomorphine challenge

CN1CCC2(CC1)c1c([nH]c3ccccc13)-c1ccccc1N2C [1',5-Dimethyl-5,6-dihydrospiro[1H-indolo[3,2-c]quinoline-6,4'-piperidine]fumarate, hemiethanolate]
ED50 [1, 4]: 19.8 mg/kg | ED50 ([2]; Mus musculus, sc): 10.3 mg/kg

CC(=O)N1CCC2(CC1)NC1=CC=CCC1=C1N=c3ccccc3=C12 [1'-Acetyl-5,6-dihydrospiro[1H-indolo[3,2-c]quinoline-6,4'-piperidine]]
PQW ([2]; at 20 mg/kg): -66%

CCN1CCC2(CC1)NC1=CC=CCC1=C1N=c3ccccc3=C12 [1'-Ethyl-5,6-dihydrospiro[1H-indolo[3,2-c]quinoline-6,4'-piperidine]]
supramaximal electroshock, normalized percent inhibition relative to vehicle control ([3]; at 60 mg/kg, i.p.): -80%

c1ccc(CCN2CCC3(CC2)Nc2ccccc2-c2[nH]c4ccccc4c23)cc1 [1'-Phenethyl-5,6-dihydrospiro[1H-indolo[3,2-c]quinoline-6,4'-piperidine]fumarate]
PQW ([2]; at 5 mg/kg): -55%

CN1CCC2(CC1)c1c([nH]c3ccccc13)-c1ccc(Cl)cc1N2C [3-Chloro-5,1'-dimethyl-5,6-dihydrospiro[1H-indolo-[3,2-c]quinoline-6,4'-piperidine]dihydrochloride]
ED50 [1, 4]: 13.2 mg/kg

CNC1=Nc2ccc(Cl)cc2C(c2ccccc2)=[N+]([O-])C1 [Chlorodiazepoxide, reference compound]
ED50 ([3]; ip, reference compound): 8 mg/kg

CN1CCN(C2=Nc3cc(Cl)ccc3Nc3ccccc32)CC1 [Clozapine, reference compound]
ED50 ([1]; sc, reference compounds): 8.1 mg/kg

CC(C)=CCN1CCC2(C)c3cc(O)ccc3CC1C2C (stereo not drawn) [Pentazocine, reference compound]
PQW ([2]; at 1.3 mg/kg, reference compound): -50%
